Results published in PMC11169275, “MAL2 reprograms lipid metabolism in intrahepatic cholangiocarcinoma via EGFR/SREBP-1 pathway based on single-cell RNA sequencing” (Cell Death & Disease, 2024).

Molecular target: T1, MAL2 (GFP-MAL2) (Homo sapiens, UniProt Q969L2)
T1 construct: GFP fusion (GFP-MAL2) transiently expressed in HEK293T, diluted cell lysate, not purified
Assay: microscale thermophoresis, GFP-MAL2 in HEK293T lysate
Type: binding
Excerpt: microscale thermophoresis, GFP-MAL2 in HEK293T lysate on MAL2 (GFP-MAL2) | only sarizotan could assemble with MAL2, with a dissociation constant (Kd)

T1 sequence (Q969L2 whole entry, the tested form may be a part): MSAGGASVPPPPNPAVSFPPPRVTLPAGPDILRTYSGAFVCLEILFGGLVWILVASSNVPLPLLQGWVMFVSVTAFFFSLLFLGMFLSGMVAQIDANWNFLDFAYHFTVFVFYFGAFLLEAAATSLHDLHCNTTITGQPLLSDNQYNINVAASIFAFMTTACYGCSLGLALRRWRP

Kd: 36.1 µM
Structure (SMILES): Fc1ccc(-c2cncc(CNC[C@H]3CCc4ccccc4O3)c2)cc1 [sarizotan]
